Laboratory results as given in patent US20210244704A1, “Cabazitaxel in mCRPC Patients Previously Treated with Docetaxel and Who Failed a Prior androgen signaling targeted inhibitor Agent” (SANOFI MATURE IP, priority 2019, published 2021).

Experiments:
mCRPC patients [1] = settings: at 3 months; cited from earlier work
[2] = system: patients with mCRPC who progressed during or after docetaxel; settings: every 3 weeks with prednisone 10 mg daily; cabazitaxel 25 mg/m^2, mitoxantrone 12 mg/m^2; cited from earlier work
[3] = system: mCRPC patients, safety population; assay: Same clinical study: safety (adverse events, laboratory abnormalities, dose reductions); type: in vivo, human; settings: human, in vivo
Method: For patients in Arm A, cabazitaxel 25 mg/m^2 was administered intravenously over 1 hour every 3 weeks along with oral prednisone 10 mg given daily. Primary prophylactic granulocyte-colony stimulating factor (G-CSF) was required at each cycle for all patients in the cabazitaxel arm
For patients in Arm B, abiraterone acetate was administered orally at 1000 mg once daily along with oral prednisone 5 mg given twice daily or enzalutamide was administered orally at 160 mg once daily continuously. Abiraterone acetate was administered to patients who had received enzalutamide prior to study entry. Enzalutamide was administered to patients who received prior abiraterone acetate.
Cabazitaxel 25 mg/m^2, was administered intravenously over 1 hour every 3 weeks with oral prednisone 10 mg daily. Premedication included an antihistamine, glucocorticoid (dexamethasone 8 mg or equivalent), and histamine 2 receptor antagonist. Antiemetic prophylaxis was administered at physician's discretion. Primary prophylactic granulocyte-colony stimulating factor was required during each cycle of cabazitaxel. Patients received either abiraterone acetate (1000 mg orally once daily and oral prednisone 5 mg twice daily) or enzalutamide (160 mg orally once daily) continuously. A treatment cycle was 3 weeks in both arms. Abiraterone acetate was given to patients who previously received enzalutamide before study entry. Enzalutamide was given to patients who previously received abiraterone acetate.
Up to a maximum of 2 dose reductions was allowed per patient when necessary due to toxicity and according to the table below:
Efficacy analysis used all randomized patients. Stratified log-rank tests were used to analyze time-to-event data. The primary analysis compared radiographic progression-free survival between the two treatment groups using a stratified log-rank test. Survival curves were generated using Kaplan-Meier estimates. Hazard ratios and associated 95% confidence intervals [CI] were estimated using a stratified Cox proportional hazards model. Stratified Cochran-Mantel-Haenszel chi-square tests were used to analyze categorical data. Descriptive statistics were used to summarize patient characteristics. The safety population (randomized patients who received at least one dose of study treatment) was used for all safety analyses.

mCRPC patients [4] = settings: 3 months; cited from earlier work

SMILES: CNC(=O)c1ccc(N2C(=S)N(c3ccc(C#N)c(C(F)(F)F)c3)C(=O)C2(C)C)cc1F [enzalutamide, 4-{3-[4-cyano-3-(trifluoromethyl)phenyl]-5,5-dimethyl-4-oxo-2-sulfanylideneimidazolidin-1-yl}-2-fluoro-N-methylbenzamide]
- Patients with imaging-based progression (mCRPC patients [1]): about 25%

SMILES: O=C1c2c(O)ccc(O)c2C(=O)c2c(NCCNCCO)ccc(NCCNCCO)c21 [mitoxantrone]
- Median overall survival, TROPIC trial [2]: 12.7 months

SMILES: CC(=O)O[C@H]1CC[C@@]2(C)C(=CC[C@@H]3[C@@H]2CC[C@]2(C)C(c4cccnc4)=CC[C@@H]32)C1 [abiraterone acetate, (3β)-17-(3-pyridinyl) androsta-5,16-dien-3-yl acetate]
- At least one dose reduction required [3]: 17 patients
- Patients with primary resistance, imaging-based progression at the first visit (mCRPC patients [4]): about 30%
